Experimental data reported in patent publication US20070059385A1, “Safe pharmaceutical composition for treating and preventing cancer and method of use” (priority 2005, published 2007).

Experiments:
tyrosine kinase (TK) = assay: Tyrosine kinase (TK) assay in HL-60 leukemia cells; format: cell-based, human
Description: Tyrosine kinase (TK) Assay: TK was measured by a modification of the method of Braun et al. Briefly, H-60 leukemia cells were plated at a density of 5×10^5 cells in […], and divided control and treatments groups for incubation 24 hours at 37° C. with 5% CO2. The cells were collected by scraping, washed twice with phosphate-buffered saline, and resuspended at density of 10^6 cells/ml in 5 mM HEPEs buffer (pH 7.4). The cells were then resuspended in 1 ml of buffer containing 5 mM HEPES (pH 7.6), 1 mM MgCl2 and 1 mM EDTA, then placed on ice bath. The cell membrane was disrupted by ultra sound and centrifuged at 1,000×g for 10 minutes. The supernatant was ultra centrifuged at 30,000×g for 30 minutes at 4° C. The pellet was resuspended in 0.3 ml of buffer containing 25 mM HEOES, centrifuged at 12,000×g for 5 minutes. The resulting supernatant was used for TK assay. Content of protein was determined. 10 μg of protein placed in 20 mM HEPES (pH 7.6), 15 mM MgCl2, 10 mM ZnCl2 and 5% (v/v) nonidet P-40, with or without substrate [glutamic acid (GT), mg/ml]. After 5 minutes incubation at 25° C., the reaction was initiated by the addition of 25 μM [γ^32P] ATP (3 ci/mmol). After 10 minutes, the reaction was stopped by the addition of 20 mM cold ATP. 50 μl of the mixtures were spotted on glass microfiber filter discs and washed three times with cold trichloroacetic acid (TCA), contained 10 mM sodium pyrophosphate. Air dried. Radioactivity was determined by liquid scintillation spectrometry. The net TK activity was determined after correcting for endogenous TK activity.

TA98 = assay: Salmonella mutagenicity assay TA98
Description: The method for detecting mutagenicity of HHT, with the Salmonella system that detects the reversion of the bacteria from His^− to His^+, is widely used.
The bacterial tester strains used for mutagenesis testing are TA97, TA98, TA100 and TA102. Mutagenesis testing method was done as described previously ^[77-88]. In brief, TA97, TA98, TA100 and TA102 were grown in agar gel culture. The petri plats (100×15 mm style) contain 30 ml with 2% glucose. The agar mixture was agitated vigorously and immediately poured into plates of minimal agar. The cultures were incubated at 37° C. in a dark and 5% CO2 in air for 48 hours. After 48 hours the colonies in both test and controls are counted. The presence of a background lawn of bacteria on the histidine-poor soft agar plate was used as an indication that gross toxic effects were absent. Mutagenicity assays were carried out at least in triplicate.
The range of spontaneous mutation rates for the individual strains, which were considered to be acceptable, was TA97 (100-170), TA98 (20-40) and TA100 (80-150).

[1] = tested on: Human leukemia cells (HL-60); assay: Apoptosis of human leukemia cells; format: cell-based
Description: Human leukemia cells (HL-60) were grown in RPMI Medium 1640 supplemented with 10% (v/v) heat-inactivated FBS (56° C. for 30 min) at 37° C. in a humidified 95% air/5% CO2 atmosphere. Cells were seeded at a level of 2×10^5 cells/ml. Cells were allowed to attain a maximum density of 1.2×10^6 cells/ml before being passed by dilution into fresh medium to a concentration of 2×10^5 cells/ml. […]
For evaluation of apoptosis by flow cytometry, cells were fixed and permeabilized in 1% paraformaldehyde and ice-cold 70% ethanol. Digoxigenin-dUTP was incorporated at the 3′OH ends of the fragmented DNA in the presence of terminal deoxynucleotidyltranserase, and the cells were incubated with FITC-labeled anti-digoxigenin-dUTP and with propidium iodide. Green (apoptotic cells) and orange (total DNA) fluorescence were measured with a FACScan flow cytometer and analyzed with LYSIS II and CELLFIT programs. Data were analyzed by Student's t-test. P values were considered significant when <0.05. […]
Apoptosis of HL-60 cells was assessed by changes in cell morphology and by measurement of DNA nicks using the Apop Tag Kkt (Oncor, Gaithersburg, Md.). […] These features make apoptotic cells relatively easy to distinguish from necrotic cells. These changes are detected on cytospin preparations stained with Diff-Quick Stain Set. Apoptotic cells were enumerated in a total of about 300 cells by light microscopy.

cancer cells = assay: Inhibition of tumor cell proliferation; format: cell-based; details: Homo sapiens; 1 μg/ml drug, 72 hours; read-out: Inhibition (%) of growth of cancer cells
Description: Human tumor cell lines: Hela leukemia HL-60, malignant melanocarcinoma B 16, oral epidermoid carcinoma (KB), lung carcinoma (A549), breast carcinoma MCF-7, adenocarcinoma of stomach.
Animal tumor cell lines: Walker carcinoma, LLC-WRC-256, malignant melanoma (RMMI 1846), 3T3, and S-1 80 sarcoma (CCRF-180). All lines were routinely cultured in the RPMI1640 medium supplemented 20% fetal calf serum. The experiment was carried out in 96 microplate, each well had 5×10^5 cells and given desired concentration of 1 μg/ml (1×10^−6 g/ml) drug. Then the plate was incubated at 37° C. in an atmosphere of humidified air enriched with 5 percent carbon dioxide for 72 hours. Inhibition percent rate of tumor cell proliferation was obtained according to the bellow formula. [formula]

COC(=O)C[C@](O)(CCCC(C)(C)O)C(=O)O[C@@H]1C(OC)=C[C@]23CCCN2CCc2cc4c(cc2[C@H]13)OCO4 [HHT, Homoharringtonine]
inhibition of HL-60 TK activity (tyrosine kinase (TK); 10^−7 M): 78.5% | inhibition of HL-60 TK activity (tyrosine kinase (TK); 10^−8 M): 12.2% | % of control activity (TK) (tyrosine kinase (TK); HL-60 leukemia cells, 10^−6 M): 0.6% | % of control activity (TK) (tyrosine kinase (TK); HL-60 leukemia cells, 10^−8 M): 87.8 ± 12% | % of control activity (TK) (tyrosine kinase (TK); Table 8, concentration not given): 21.5 ± 4.0% | Number of His^+ revertants/plate (TA98; TA98 +S, 0.1 μg/plate): 34 ± 4 revertants/plate | Number of His^+ revertants/plate (TA98; TA98 +S, 1 μg/plate): 32 ± 4 revertants/plate | Number of His^+ revertants/plate (TA98; TA98 +S, 10 μg/plate): 36 ± 3 revertants/plate | Number of His^+ revertants/plate (TA98; TA98 +S, 100 μg/plate): 34 ± 4 revertants/plate | Number of His^+ revertants/plate (TA98; TA98 −S, 0.1 μg/plate): 29 ± 3 revertants/plate | Number of His^+ revertants/plate (TA98; TA98 −S, 1 μg/plate): 30 ± 3 revertants/plate | Number of His^+ revertants/plate (TA98; TA98 −S, 10 μg/plate): 38 ± 4 revertants/plate | Number of His^+ revertants/plate (TA98; TA98 −S, 100 μg/plate): 32 ± 4 revertants/plate | Apoptosis (%) ([1]; HHT 10 ng/ml): 33.8 ± 4.8 % | Apoptosis (%) ([1]; HHT 50 ng/ml): 42.8 ± 5.2 % | Apoptosis (%) ([1]; HHT 100 ng/ml): 60.2 ± 8.9 % | Apoptosis (%) ([1]; HHT 500 ng/ml): 92.0 ± 10.8 % | Apoptosis (%) ([1]; Table 4, HHT (50 ng/ml) alone or in combination): 42.8 ± 5.2% | inhibition at 1 µg/mL (cancer cells): 73.8 ± 8.1%
